Patent publication US9173935B2, “Phospholipid drug analogs” (Telormedix SA, priority 2010, dated 2015)
Read-outs that look alike come from different tables or passages of the source.

Assays:
[1] = tested on: Cutaneous Squamous Cell Carcinoma cell lines SCL-I, SCL-II, SCC-12, SCC-13; experiment: Direct proapoptotic and cytotoxic effects on SCC cells (real-time cell analysis, microscopy); format: cell-based, human
Experimental: SCC cells are grown under standard conditions (10% FBS).
Time and dose dependency of effects on total cell numbers have been investigated by real-time cell analysis, which is based on continuous monitoring of electric conductance in microtiter wells (E-plates, Roche), which corresponds to the cell numbers. […] For these assays 4 cell lines should be used to obtain a representative overview on the effects on SCC cells.

human PBMCs = experiment: IL-6 secretion in human PBMCs, two batches of Compound A and SC12; format: cell-based; settings: 24 h, 4 doses
Experimental: PBMCs were purified from two donors and plated into 96 well plates at 2×10^5 cells/well in RPMI media including human 2% heat inactivated AB serum, glutamine, Pen-strep and R-mercapto-ethanol. The cells were treated with TLR7 agonists for 24 h in 4 doses. The conditioned media was removed for ELISA analyses for IL-6, and the EC50 value determined for each compound and each batch.
All compounds were tested in four concentrations (10-1-0.1-0.01 micromolar).
Concentrations of IL-6 were determined by ELISA from R&D Systems using the Microsoft Excel software. The results were analyzed in Graph Pad Prism in order to prepare dose-response curves, and for determination of EC50 values.

[2] = tested on: recombinant protein antigens from Plasmodium falciparum and Mycobacterium ulcerans; experiment: Pilot immunization study with adjuvanted protein antigens; format: in vivo, mice; settings: three s.c. immunizations
Experimental: A pilot immunization study was conducted using Compound A and SC12 adjuvanted protein antigens. The immunization experiments were performed with two recombinant proteins expressed in E. coli. One antigen was derived from the malaria parasite Plasmodium falciparum and the other one from Mycobacterium ulcerans, which cause the ulcerative skin disease Buruli ulcer.

CYP2C8 = CYP2C8 (Homo sapiens (Human), UniProt P10632); experiment: Fluorescent High Throughput P450 assay, CYP2C8; format: biochemical; settings: substrate DBF; head of Table 31 prints CYP2CB; read-out: CYP2C8 IC50 (Mean ± S.D.)
Sequence of CYP2C8 (P10632 whole entry, looked up): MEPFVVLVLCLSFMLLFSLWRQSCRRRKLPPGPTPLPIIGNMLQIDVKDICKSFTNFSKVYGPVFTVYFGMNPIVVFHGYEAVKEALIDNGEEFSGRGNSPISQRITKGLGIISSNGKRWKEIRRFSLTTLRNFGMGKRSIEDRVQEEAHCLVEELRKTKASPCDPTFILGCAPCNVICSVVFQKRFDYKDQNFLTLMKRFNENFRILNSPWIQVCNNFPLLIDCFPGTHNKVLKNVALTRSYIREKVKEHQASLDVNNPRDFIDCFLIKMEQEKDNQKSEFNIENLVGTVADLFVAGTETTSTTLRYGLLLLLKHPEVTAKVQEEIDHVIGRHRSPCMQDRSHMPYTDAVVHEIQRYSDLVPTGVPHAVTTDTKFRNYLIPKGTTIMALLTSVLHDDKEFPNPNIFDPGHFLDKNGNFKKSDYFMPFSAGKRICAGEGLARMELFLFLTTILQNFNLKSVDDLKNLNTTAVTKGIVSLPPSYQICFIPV
Experimental: (§1) Inhibition of the P450 isoforms was measured in specific assays using specific substrates that become fluorescent upon CYP metabolism. Compounds, dissolved in ACN (acetonitrile) (CYP2E1, CYP2C8, CYP2B6, CYP3A5) or DMSO (all remaining isoforms), were tested in duplicate (n=2) in concentration-response curves (eight concentrations) in a 96-well plate containing incubation/NADPH regenerating buffer. Specific isoenzymes and substrates were added and incubated at 37° C. Reactions were terminated at different times, depending on the assays, and plates read on a Fluoroskan Ascent at the appropriate emission/excitation wavelengths. Concentration-response curves performed in duplicate for known inhibitors for each isoenzyme were tested in every assay as positive control.

CYP3A5 = CYP3A5 (Homo sapiens (Human), UniProt P20815); experiment: Fluorescent High Throughput P450 assay, CYP3A5; format: biochemical; settings: substrate BFC; read-out: CYP3A5 IC50 (Mean ± S.D.)
Sequence of CYP3A5 (P20815 whole entry, looked up): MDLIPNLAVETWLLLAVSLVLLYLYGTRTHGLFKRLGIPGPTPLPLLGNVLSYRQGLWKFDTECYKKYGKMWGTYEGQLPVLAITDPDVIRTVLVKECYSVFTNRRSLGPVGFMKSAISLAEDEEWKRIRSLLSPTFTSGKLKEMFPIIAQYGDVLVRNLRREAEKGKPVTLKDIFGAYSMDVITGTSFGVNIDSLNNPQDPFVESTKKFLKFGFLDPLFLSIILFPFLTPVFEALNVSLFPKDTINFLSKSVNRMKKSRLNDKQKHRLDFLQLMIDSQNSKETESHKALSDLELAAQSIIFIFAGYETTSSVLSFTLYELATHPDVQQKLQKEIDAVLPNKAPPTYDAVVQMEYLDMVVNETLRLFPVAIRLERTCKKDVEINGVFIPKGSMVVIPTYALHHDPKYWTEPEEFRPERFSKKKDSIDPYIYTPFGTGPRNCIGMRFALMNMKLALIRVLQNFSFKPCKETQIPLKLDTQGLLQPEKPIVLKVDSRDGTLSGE
Experimental: as §1

CYP3A4 = CYP3A4 (Homo sapiens (Human), UniProt P08684); experiment: Fluorescent High Throughput P450 assay, CYP3A4; format: biochemical; settings: substrate BFC; read-out: CYP3A4 IC50 (Mean ± S.D.)
Sequence of CYP3A4 (P08684 whole entry, looked up): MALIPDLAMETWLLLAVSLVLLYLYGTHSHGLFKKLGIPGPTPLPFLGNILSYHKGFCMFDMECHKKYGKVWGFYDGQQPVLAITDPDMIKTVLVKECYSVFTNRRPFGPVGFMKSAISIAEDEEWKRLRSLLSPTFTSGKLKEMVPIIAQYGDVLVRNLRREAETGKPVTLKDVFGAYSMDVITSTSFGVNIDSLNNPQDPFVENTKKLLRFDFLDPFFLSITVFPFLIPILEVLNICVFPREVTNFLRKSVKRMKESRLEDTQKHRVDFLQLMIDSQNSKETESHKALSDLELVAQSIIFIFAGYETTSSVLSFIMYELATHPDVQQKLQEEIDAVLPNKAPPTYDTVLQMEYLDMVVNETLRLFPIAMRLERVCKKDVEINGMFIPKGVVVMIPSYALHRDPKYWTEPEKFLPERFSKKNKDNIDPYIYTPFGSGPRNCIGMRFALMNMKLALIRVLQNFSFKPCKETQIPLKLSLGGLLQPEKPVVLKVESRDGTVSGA
Experimental: as §1

whole blood = experiment: Cytokine secretion in human whole blood assay (ELISA); format: cell-based
Experimental: A volume of approximately 55 mL fresh whole blood was drawn in heparinized Vacutainers from three healthy adult anonymous volunteers as described (J. A. Ida, Journal of Immunol Methods, 310, 2006, 86-99). […] Before drawing the blood, the compounds were added to 96 well round bottom plates in a 10× diluted sample at 20 ul. The compounds were diluted in RPMI media without serum but with antibiotics. Antibiotics were added at a 10× concentration. After drawing the blood, the whole blood sample was gently mixed to obtain a homogeneous sample, and 180 ul was added to each well.
After 6 hours and 24 hours incubation, plasma was removed for ELISA (IL-6, IL-10, IL-12p40 and IFN-alpha). ELISA was made at the 6 and 24 hours time point for all concentrations. After 24 hours incubation with selected compound concentrations, cells were analyzed for activation markers by FACS.
All compounds were setup in concentrations at 0-0.01-0.03-0.1-0.5-2.0-10.0 micromolar as the final concentration. Vehicle control was DMSO control, where we used the highest concentration used for the compounds. After addition of blood, all plates were gently agitated at 37° C. and 5% CO2 until harvest. The samples were removed after 6 or 24 hours incubation, and pooled into appropriate tubes (2 ml).
Concentrations of cytokines were determined by ELISA from R&D Systems. The results were analyzed in Graph Pad Prism in order to prepare dose-response
curves, and for determination of EC50 values. FACS analysis was made by using Becton-Dickinson FACSDiva software and subsequently illustrated in Graph Pad Prism.

[3] = tested on: HLA-DR+/CD11c-/CD123+ pDCs; experiment: FACS analysis of plasmacytoid DC activation in whole blood; format: cell-based, human; settings: 24 hours, 0.1 and 0.5 uM, three donors
Experimental: A flow cytometric analysis was performed on whole blood from three donors after treatment with two compound concentrations for 24 h. The FACS analysis for donor 1 and donor 2 was made on another day than donor 3. The compound concentrations were as follows:
The FACS analysis was used to identify whether the test compounds could induce activation of B cells, and two different subsets of dendritic cells, namely the myeloid CD11c+/CD123− DCs and the plasmacytoid CD11c−/CD123+ DCs. The following markers were studied to identify the activation status of the different subsets:
The FACS staining was performed according to the manufacturer's instructions. Lysis of red blood cells was performed before FACS staining in order to minimize auto-florescence. To include as many B cells and DCs in the study as possible the FACS analyses were performed on 500,000 cells in total for each staining. A P1 gate was set only to include relevant cells on FSC vs. SSC (see FIGS. 12-15). The results of the individual analysis were present as Mean Fluorescence Intensity
The analysis of pDCs was based on HLA-DR+/CD11c−/CD123+ cells, thus all analyzed cells were included in the HLA-DR+ (P3) gate and CD11c−/CD123+(Q1) gate. (FIGS. 13-15).

CCCCCCCCCCCC(=O)OCC(COP(=O)(O)OCCNC(=O)c1ccc(Cn2c(=O)[nH]c3c(N)nc(OCCOC)nc32)cc1)OC(=O)CCCCCCCCCCC (stereo not shown) [SC12]
Cell numbers (electric conductance, real-time cell analysis) ([1]; 4 cutaneous SCC cell lines, versus untreated control): reduced cell numbers | Morphology and proliferation (microscopy) ([1]; day 3, 120 microM): cell detachment, morphological changes and inhibition of proliferation | EC50 (human PBMCs; Donor 1, listed as SC12 new 20288): 1.87 µM | EC50 (human PBMCs; Donor 1, listed as SC12 old CH730/2/13D): 2.01 µM | EC50 (human PBMCs; Donor 2, listed as SC12 new 20288): 0.947 µM | EC50 (human PBMCs; Donor 2, listed as SC12 old CH730/2/13D): 1.03 µM | Local side effects (swelling, ulcerations) ([2]; 10 nMol adjuvant): No local side effects | IgG responses against target antigens ([2]; 20 micrograms antigen with 10 nMol adjuvant): all 20 immunized mice had developed IgG responses | IC50 (CYP2C8): > 100 µM | IC50 (CYP3A5): 10.5 ± 0.5 µM | IC50 (CYP3A4): 13.6 ± 0.7 µM | IL-10 production (whole blood; 6 hours incubation): no IL-10 production was seen | EC50 (whole blood; Donor 1, read-out: EC50-IFN-alpha, 24 h Incubation): 0.2 µM | EC50 (whole blood; Donor 1, read-out: EC50-IL-6, 24 h Incubation): 0.22 µM | EC50 (whole blood; Donor 1, read-out: EC50-IL-10, 24 h Incubation): 1.34 µM | EC50 (whole blood; Donor 1, read-out: EC50-IL-12p40, 24 h Incubation): 4.1 µM | EC50 (whole blood; Donor 2, read-out: EC50-IFN-alpha, 24 h Incubation): 0.11 µM | EC50 (whole blood; Donor 2, read-out: EC50-IL-6, 24 h Incubation): 0.06 µM | EC50 (whole blood; Donor 2, read-out: EC50-IL-10, 24 h Incubation): 0.41 µM | EC50 (whole blood; Donor 2, read-out: EC50-IL-12p40, 24 h Incubation): 1.42 µM | EC50 (whole blood; Donor 3, read-out: EC50-IFN-alpha, 24 h Incubation): 0.24 µM | EC50 (whole blood; Donor 3, read-out: EC50-IL-6, 24 h Incubation): 0.17 µM | EC50 (whole blood; Donor 3, read-out: EC50-IL-10, 24 h Incubation): 9 µM | EC50 (whole blood; Donor 3, read-out: EC50-IL-12p40, 24 h Incubation): 14.2 µM | EC50 (whole blood; read-out: EC50-IFN-alpha, 6 h Incubation, Donor 1): 0.98 µM | EC50 (whole blood; read-out: EC50-IFN-alpha, 6 h Incubation, Donor 2): 0.83 µM | EC50 (whole blood; read-out: EC50-IFN-alpha, 6 h Incubation, Donor 3): 1.66 µM | EC50 (whole blood; read-out: EC50-IL-6, 6 h Incubation, Donor 1): 0.57 µM | EC50 (whole blood; read-out: EC50-IL-6, 6 h Incubation, Donor 2): 0.18 µM | EC50 (whole blood; read-out: EC50-IL-6, 6 h Incubation, Donor 3): 0.37 µM | EC50 (whole blood; read-out: EC50-IL-12, 6 h Incubation (IL-12p40), Donor 2): 2.36 µM | EC50 (whole blood; read-out: EC50-IL-12, 6 h Incubation (IL-12p40), Donor 3): 3.56 µM | CD80 expression on pDCs [3]: induces a slightly higher CD80 expression than compound A | CD86 expression on pDCs [3]: tendency to induce higher CD86 expression than compound A
